Experimental data: US20150125550A1, “APPLICATION OF 2,9-DI-SEC-BUTYL-1,10-PHENANTHROLINE AS A GLIOBLASTOMA TUMOR CHEMOTHERAPY” (priority 2013, published 2015)

Test system: GL-26 murine glioma cells
Assay: SRB growth assay of SBP and gold complexes on GL-26 (Example 4)
Type: cell-based, murine (C57BL/6)
Settings: Mus musculus, GL26, 48 hr, read-out: concentration inhibiting GL-26 by 50%
Description: The murine (C57BL/6) glioma cell line, GL-26, which is highly tumorigenic in the C57BL/6 mice, was used. GL-26 cells were cultured in DMEM/F12 supplemented with 10% FCS, 1% penicillin/streptomycin, 1% L-glutamine and 1% non-essential amino acids. Human foreskin fibroblasts (HFFs) were cultured in DMEM/F12 supplemented with 10% FCS and 1% penicillin/streptomycin. Primary murine astrocytes were purified from C57BL/6 neonate brains and cultured in DMEM/F12 supplemented with 10% FCS, 1% non-essential amino acids, 1% L-glutamine, 50 IU/ml penicillin, […] and 10 mM Hepes buffer.
The sulforhodamine B (SRB) cytotoxicity assays were adapted from Skehan et al (21). Briefly, either HFF, primary astrocytes or GL-26 cells were plated in 96-well plates at a density of 4,000 cells/well in a volume of 100 µL overnight at 37° C. and 5% CO2. DMSO stock solutions of SBP, MSBP or TMZ were used at a concentration range of 0.1-25 μM for 48 hr before the supernatant was discarded and the cells were fixed for 1 hr with 10% cold trichloroacetic acid (100 μL per well). Cells used in recovery assay received fresh media for 48 hrs following the 48 hr drug incubation. […] Bound SRB was then read by absorbance at 492 nm on a SpectraMax plate reader (Molecular Devices). The percent survival was then calculated based upon the absorbance values relative to control wells (0 μM SBP in 0.1% DMSO).

IC50: 0.8 to 1.6 µM
Structure (SMILES): CCC(C)c1ccc2ccc3ccc(C(C)CC)nc3c2n1 (stereo not shown) [Compound 1, 2,9-di-sec-butyl-1,10-phenanthroline]
